Laboratory results published in paper PMC7821181, “MS Binding Assays for Glycine Transporter 2 (GlyT2) Employing Org25543 as Reporter Ligand” (Chemmedchem, 2020).
Where “and” joins values, the source holds several entries; their conditions need not be identical. Equal values may be shown once. Entries after “also recorded” stand apart in the source; their conditions may differ. Read-outs that look alike come from different tables or passages of the source.

Assays:
[1] = target: T1, hGlyT2 (Homo sapiens, UniProt Q9Y345); assay: GlyT2 MS Binding Assays: competition experiments with Org25543 as reporter ligand; details: for completeness of displacement of Org25543 from GlyT2, in words: up to the highest concentration investigated (glycine 1 M); for affinity / inhibition of Org25543 binding, in words: up to highest concentration (sarcosine, L-serine, DL-leucine mM; Org24598 300 μM; LY2365109 10 μM; ALX5407 600 μM)
T1 construct: host or cells: HEK293 cells stably expressing hGlyT2; crude membrane fractions
T1 sequence (Q9Y345 1-797): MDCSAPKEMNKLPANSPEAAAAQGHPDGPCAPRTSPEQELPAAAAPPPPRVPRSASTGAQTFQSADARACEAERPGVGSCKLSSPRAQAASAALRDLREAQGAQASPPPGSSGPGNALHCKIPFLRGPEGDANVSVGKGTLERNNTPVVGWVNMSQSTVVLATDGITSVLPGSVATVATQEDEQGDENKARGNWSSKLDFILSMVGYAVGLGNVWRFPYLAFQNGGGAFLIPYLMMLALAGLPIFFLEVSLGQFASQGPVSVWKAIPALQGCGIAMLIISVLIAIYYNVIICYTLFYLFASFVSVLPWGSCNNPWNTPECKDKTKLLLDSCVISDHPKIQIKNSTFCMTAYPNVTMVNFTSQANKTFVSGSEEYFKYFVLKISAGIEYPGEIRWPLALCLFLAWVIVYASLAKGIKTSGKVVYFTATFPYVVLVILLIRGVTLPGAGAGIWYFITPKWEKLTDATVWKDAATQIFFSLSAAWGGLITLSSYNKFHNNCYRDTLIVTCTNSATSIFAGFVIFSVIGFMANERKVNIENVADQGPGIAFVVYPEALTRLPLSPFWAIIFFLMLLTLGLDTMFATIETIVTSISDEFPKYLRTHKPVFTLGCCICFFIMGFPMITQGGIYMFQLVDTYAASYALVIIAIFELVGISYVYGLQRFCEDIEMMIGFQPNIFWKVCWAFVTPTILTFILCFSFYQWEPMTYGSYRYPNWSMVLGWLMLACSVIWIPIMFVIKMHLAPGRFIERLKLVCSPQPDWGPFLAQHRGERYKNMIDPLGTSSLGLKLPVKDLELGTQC
Experimental: For the development of the desired competitive MS Binding Assay, the general concept of this kind of binding experiments was followed, in which the affinity of a test compound is delineated from its potency to compete out a reporter ligand, in our case Org25543, from its target binding site. Accordingly, the target protein was incubated with a defined concentration of the reporter ligand and increasing concentration of the individual test compound. In detail, the competitors were studied at seven different concentration levels, which covered about three concentration log units, whereas the concentration of Org25543 was fixed to 10 nM. Thereafter, via the developed LC‐ESI‐MS/MS method the amount of bound marker (total binding) was determined for the samples obtained from the individual incubation mixtures by the common workup for MS Binding Assays. Nonspecific binding was again determined in a set of analogous experiments in which GlyT2 membrane fractions were replaced by material subjected to a heat‐shock before. The resulting amount of Org25543 binding was defined as 0 % level of specific reporter ligand binding. […] The thus determined IC50 values were finally used to calculate the corresponding K i values by means of the Cheng‐Prusoff equation.
For preparation of GlyT2 membrane preparations HEK293 cells, stably expressing the hGlyT2 with a confluence ≥90 %, were used (kindly provided by AbbVie (Wiesbaden, Germany)). As cell culture medium DMEM containing 10 % fetal bovine serum (m/v), 100 U mL^−1 penicillin, 100 μg mL^−1 streptomycin and […] hygromycin B was used and the cells were cultivated in dishes (143 cm^2) at 37 °C and 8 % CO2. The cells were detached from the dish by aspirating the medium, adding 12 mL cell culture medium without hygromycin B and pipetting the medium several times until the cell lawn was completely detached. Subsequently, the cells were washed twice with PBS (5 min, 1600 rpm, Biofuge Stratos, rotor: #3047, Heraeus, Hanau, Germany) and afterwards homogenized in incubation buffer (10 mM HEPES, 120 mM NaCl, 2 mM KCl, 1 mM MgCl2, 1 mM CaCl2, pH 7.5) using a Polytron PTA 10 S (Kinematica Polytron, Littau‐Luzern, Switzerland). After homogenization aliquots of about 1 mg protein were frozen and stored at −80 °C. To determine the amount of protein in the membrane preparation (after treatment with 100 mM NaOH for 1 h) the protein determination according to Bradford ^[63] was applied, using bovine serum albumin as standard for calibration. At the day of the assay the membrane preparation was rapidly thawed, diluted in 20 mL incubation buffer and centrifuged at 4 °C for 20 min at 20 500 rpm (Sorvall Evolution RC, rotor: SS34, Thermo. Electron, Hanau, Germany). Finally, the resulting pellet was resuspended in 6 mL incubation buffer yielding a protein concentration of ∼0.1–0.2 mg mL^−1.
In polypropylene 96‐well plates (1.2 mL well volume, Sarstedt) membrane preparations (∼5–10 μg protein) were incubated in the presence of the reporter ligand and, if required, test compounds in incubation buffer (10 mM HEPES, 120 mM NaCl, 2 mM KCl, 1 mM MgCl2, 1 mM CaCl2, pH 7.5) in a total volume of 250 μL at 37 °C in a Julabo SW‐20 C water bath (Julabo GmbH, Seelbach, Germany) for 1 h (every sample was prepared in triplicates). After the incubation 210 μL aliquots of the binding samples were transferred by means of a 12‐channel pipette onto 96‐well glass fiber filter plates (AcroPrep Advance, glass fiber, 1.0 μm, 350 μL; Pall Corporation, Port Washington, NY, USA) where the incubation was terminated by vacuum filtration (the samples were transferred and the incubation was terminated row after row; Multi Well Plate Vacuum Manifold, Pall, Dreieich, Germany).

[2] = ref 18; cited from earlier work
[3] = test system: GlyT2; details: cited from earlier work; for pIC50 (literature; calcd): calcd from literature IC50; for IC50: read-out: Biological activity, IC50 (literature)
[4] = test system: GlyT2; details: cited from earlier work
[5] = read-out: Affinity, pKi (GlyT2 MS Binding Assays) (converted)
[6] = compound 600 μM, Org25543 10 nM

CCCCCCCC/C=C\CCCCCCCC(=O)O[C@H](CC(=O)[O-])C[N+](C)(C)C [oleoyl‐L‐carnitine, Oleoyl‐L‐carnitine]
Ki [1, 5]: 2.63 µM | critical micelle concentration (CMC) [2]: 7.4 µM | pIC50 (literature; calcd) ([3]; ref 18): 6.47 | IC50 ([3]; ref 18): 0.34 µM

CCCCCCCC/C=C\CCCCCCCC(=O)NCC(=O)O [N‐oleoylglycine, N‐(1‐oxo‐9‐octadecenyl)‐(Z)‐glycine]
Ki [1, 5]: 2.34 µM | completeness of displacement of Org25543 from GlyT2, in words [1]: not able to displace Org25543 completely | pIC50 (literature; calcd) ([3]; ref 19): 6.30 | IC50 ([3]; ref 19): 0.5 µM

COC(=O)CN [glycine methyl ester]
Ki [1, 5]: 77600 µM | Glycine uptake in presence of 1 mM competitor (% of control) [3]: 84±5 %^[47],[c]

CN(CC[C@@H](Oc1ccc(-c2ccccc2)cc1)c1ccc(F)cc1)CC(=O)O [ALX5407, N‐[(3R)‐3‐([1,1′‐biphenyl]‐4‐yloxy)‐3‐(4‐fluorophenyl)propyl]‐N‐methylglycine]
IC50 [1]: > 600 µM | remaining Org25543 binding (% of specific binding) at the highest compound concentration [1, 6]: 90±5% | Ki [1, 5]: > 257 µM | affinity / inhibition of Org25543 binding, in words [1]: hardly a reduction of Org25543 binding | pIC50 (literature; calcd) ([3]; ref 40): 5.74 | pIC50 (literature; calcd) ([3]; ref 54): < 4 | IC50 ([3]; ref 40): 1.8 µM | IC50 ([3]; ref 54): > 100 µM

CC(C)CC(N)C(=O)O (racemic) [DL‐leucine]
remaining Org25543 binding (% of specific binding) at the highest compound concentration ([1]; compound 10 mM, Org25543 10 nM): 99±3% | Ki [1, 5]: > 4270 µM | affinity / inhibition of Org25543 binding, in words [1]: no inhibition of Org25543 binding to more than 50%

CN(C)CCCN1c2ccccc2Sc2ccc(Cl)cc21 [chlorpromazine]
Ki [1, 5]: 28.2 µM | pIC50 (literature; calcd) ([3]; ref 58): 4.68 | IC50 ([3]; ref 58): 21 ± 4 µM

CC(C)c1nnc(-c2ccc(-c3ccccc3)nc2)n1-c1cccc2nonc12 [ASP2535, 4‐[3‐(1‐methylethyl)‐5‐(6‐phenyl‐3‐pyridinyl)‐4H‐1,2,4‐triazol‐4‐yl]‐2,1,3‐benzoxadiazole]
Ki [1, 5]: 1.02 µM | pIC50 (literature; calcd) ([3]; ref 56): 5.34 | IC50 ([3]; ref 56): 4.6 ± 0.29 µM

NCC(=O)O [glycine]
Affinity, pKi (GlyT2 MS Binding Assays) ([1]; Org25543 10 nM, 37 °C, 1 h, mean±SEM, n=3–5, bounds in brackets where less than 50 % inhibition): 1.98±0.08 | Ki ([1]; approximate value, read-out: Ki at GlyT2 in competition experiments): ~10000 µM | completeness of displacement of Org25543 from GlyT2, in words [1]: not able to displace Org25543 completely; also recorded: cannot completely displace Org25543 | EC50 ([3]; K m and EC50 values, read-out: Biological activity (literature): K m and EC50 values): 6 to 1800 µM

CN(CCC(Oc1ccc(C(=O)c2nccs2)cc1)c1ccc(Cl)cc1)CC(=O)O (stereo not drawn) [CP‐802,079, N‐[3‐(4‐chlorophenyl)‐3‐[4‐(2‐thiazolylcarbonyl)phenoxy]propyl]‐N‐methyl‐glycine]
Ki [1, 5]: 22.9 µM | pIC50 (literature; calcd) ([3]; ref 55): <5 | IC50 ([3]; ref 55): > 10 µM

CN(CC[C@@H](Oc1ccc(C(F)(F)F)cc1)c1ccccc1)CC(=O)O [Org24598, N‐methyl‐N‐[(3R)‐3‐phenyl‐3‐[4‐(trifluoromethyl)phenoxy]propyl]glycine]
remaining Org25543 binding (% of specific binding) at the highest compound concentration ([1]; compound 300 μM, Org25543 10 nM): 101±5% | Ki [1, 5]: > 129 µM | affinity / inhibition of Org25543 binding, in words [1]: hardly any affinity | pIC50 (literature; calcd) ([3]; ref 53): <4 | IC50 ([3]; ref 53): > 100 µM

CN(CCOc1ccc(-c2ccc3c(c2)OCO3)cc1C(C)(C)C)CC(=O)O [LY2365109, N‐[2‐[4‐(1,3‐benzodioxol‐5‐yl)‐2‐(1,1‐dimethylethyl)‐phenoxy]ethyl]‐N‐methylglycine]
remaining Org25543 binding (% of specific binding) at the highest compound concentration ([1]; compound 10 μM, Org25543 10 nM): 94±10% | Ki [1, 5]: > 4.27 µM | affinity / inhibition of Org25543 binding, in words [1]: hardly any affinity | pIC50 (literature; calcd) ([3]; ref 57): <4.52 | IC50 ([3]; ref 57): > 30 µM

O=C(O)C1CCCN1 (racemic) [DL‐proline]
Ki [1, 5]: 31600 µM | completeness of displacement of Org25543 from GlyT2, in words [1]: not able to displace Org25543 completely | Glycine uptake in presence of 1 mM competitor (% of control) [3]: 95±5 %^[47],[c]

CNCC(=O)O [sarcosine]
remaining Org25543 binding (% of specific binding) at the highest compound concentration ([1]; compound 2.2 mM, Org25543 10 nM): 98±6% | Ki [1, 5]: > 933 µM | affinity / inhibition of Org25543 binding, in words [1]: no inhibition of Org25543 binding to more than 50% | pIC50 (literature; calcd) ([3]; ref 22): <3 | IC50 ([3]; ref 22): > 1000 µM

O=C(O)CCCCSc1ncnc2[nH]c(O)nc12 [ZINC6865169, 5‐((8‐hydroxy‐9H‐purin‐6‐yl)thio)pentanoic acid]
IC50 [1]: > 600 µM | remaining Org25543 binding (% of specific binding) at the highest compound concentration [1, 6]: 77% and 77±6% | Ki [1, 5]: > 257 µM | IC50 ([4]; ref 40, read-out: IC50 in glycine uptake studies): 0.518 µM | pIC50 (literature; calcd) ([3]; ref 40): 6.29 | IC50 ([3]; ref 40): 0.518 ± 0.066 µM

COc1cc(C(=O)NCC2(N(C)C)CCCCC2)cc(OC)c1OCc1ccccc1 [compound 8]
Ki [1, 5]: 0.0417 µM | IC50 ([4]; ref 23, read-out: IC50 in [3H]glycine uptake assay): 0.084 µM | pIC50 (literature; calcd) ([3]; ref 23): 7.08 | IC50 ([3]; ref 23): 0.084 ± 0.003 µM

N[C@@H](CO)C(=O)O [L‐serine]
remaining Org25543 binding (% of specific binding) at the highest compound concentration ([1]; compound 180 mM, Org25543 10 nM): 97±4% | Ki [1, 5]: > 77600 µM | affinity / inhibition of Org25543 binding, in words [1]: no inhibition of Org25543 binding to more than 50% | Glycine uptake in presence of 1 mM competitor (% of control) [3]: 89±7 %^[47],[c]
